Data published in PMC7000758 (Nature Communications, 2020).
Several values for one entry are separate records, joined by “and”; a condition that tells them apart may be missing. Equal values may be shown once. Entries after “also recorded” stand apart in the source; their conditions may differ. Read-outs that look alike come from different tables or passages of the source.

What was measured:
[1] = tested on: choroidal NV at Bruch's membrane rupture sites; assay: Mouse model of laser-induced choroidal NV (type 2); type: in vivo, C57BL/6 mice; conditions: for CNVsize: individual eyes
Description: Mice were treated in accordance with the Association for Research in Vision and Ophthalmology Guidelines on the care and use of animals in research. All protocols were approved by the Animal Care and Use Committee of the Johns Hopkins University School of Medicine. Laser photocoagulation-induced rupture of Bruch’s membrane was used to generate choroidal NV[34]. […] One week after rupture of Bruch’s membrane, mice were euthanized, eyes were removed, anterior segments, retinas, and vitreous was removed, and eye cups were stained with fluorescein isothiocyanate (FITC)-conjugated GSA (Vector Laboratories, Burlingame, CA), and flat mounted. Flat mounts were examined by fluorescence microscopy and the area of each choroidal NV was measured by image analysis with Image-Pro Plus software (Media Cybernetics, Silver Spring, MD) by an observer masked with respect to experimental groups. The three areas obtained in each eye were averaged to give a single experimental value.

[2] = design: method as in rabbit PK study previously conducted by the authors; conditions: rabbit; ref rabbit PK study previously conducted by the authors; cited from earlier work
[3] = Cataract after intravitreous injection in mice; type: in vivo, C57BL/6 mice; conditions: intravitreous doses of free sunitinib >0.5 µg
From the text: The murine model of laser-induced rupture of Bruch’s membrane results in choroidal NV that is similar to type 2 choroidal NV in patients with NVAMD, because the new vessels originate from the choroid and penetrate through Bruch’s membrane and the RPE into the subretinal space. Studies in this model helped to implicate VEGF as a critical stimulus for NVAMD[4] and predicted the clinical benefits seen with aflibercept, a recombinant VEGF-neutralizing protein commonly used to treat patients with NVAMD[6],[35].

[4] = Melanin binding of sunitinib in vitro; type: in vitro ADME, sepia officialis; conditions: for percentage of melanin-bound sunitinib: 10 mg melanin in PBS, 1 h
[5] = Pharmacokinetic study in mice (drug remaining in eye, LC-MS); type: in vivo, C57BL/6N mice; conditions: for Remaining Drug (Normalized against T0) (%): mouse eye, intravitreous 1 µg sunitinib or equivalent
From the text: Twenty male or female 5–7-week-old C57BL/6N mice were anesthetized and the pupils were dilated as previously described. […] […], 5 mice from each condition were euthanized and the whole globes were collected and transferred to a bioanalytical facility for measurement of drug levels by liquid chromatography–mass spectrometry (LC–MS). The amount of drug remaining in the eye at 30 days was compared to and presented as a percentage of the initial dose injected in the eye.

[6] = for Average release (%): Fig 1b dissolution of suspension
Description: At selected time points, 3 ml of the release medium was collected and replaced with 3 ml fresh release medium.

[7] = cited from earlier work
subretinal NV = assay: Subretinal NV in rho/VEGF transgenic mice (type 3 choroidal NV); type: in vivo; conditions: for Mean area of sunretinal NV per retina: Fig 4b, 40 µg at P14, individual retinas
Description: At P21, P28, P35, or P42, mice were euthanized and retinas were stained with FITC-labeled GSA lectin and flat mounted with photoreceptors facing up. Retinal flat mounts were examined by fluorescence microscopy and the area of subretinal NV was measured by image analysis by a masked observer.

VEGF-induced leukostasis = assay: Retinal leukostasis (concanavalin A perfusion); type: in vivo, C57BL/6 mice; conditions: 40 µg
Description: Leukostasis was measured by staining leukocytes with rhodamine- or FITC-labeled conA[52]. […] Vector Labs Thermofisher). The vasculature was flushed for 4 min with PBS to remove residual unbound conn A. […] Retinas were examined by fluorescence microscopy and the number of intravascular leukocytes throughout the entire retina were counted by an investigator masked with respect to treatment group. […] After washing, retinas were incubated in Alexa Fluor 594-conjugated goat anti-rat secondary antibody (1:500; A-11007 Invitrogen) for 1 h at room temperature. Retinas were washed, flat mounted and examined by fluorescence microscopy.

[8] = tested on: photoreceptors (outer nuclear layer); assay: Photoreceptor survival: ONL thickness in mice with type 3 choroidal NV; type: in vivo, rho/VEGF mice; conditions: for ONL thickness: Fig 5b, 40 µg, P42, individual eyes
rhodopsin kinase (GRK-1) = assay: Photoreceptor survival: rhodopsin kinase (GRK-1)/actin immunoblot of retinal homogenates; type: in vivo, rho/VEGF mice
Description: At P42, some mice were euthanized and eyes were marked at the 12:00 pole and frozen in embedding compound. […] At […] five mice were euthanized and retinas were dissected from each eye and homogenized in 150 μl lysis buffer (Abcam, Cambridge, MA) followed by high speed centrifuge (16,000 × g, 15 min). Supernatants were collected in pre-chilled eppendorf tubes. […] Membranes were probed with anti-GRK1 antibody (1:1000; ThermoFischer Scientific, Catalog no. PA5-13725, Lot no. […] Catalog no. A2066, Lot no. 019M4777V, Sigma Life Science, St. Louis, MO) overnight at 4 °C. […] Louis, MO) was added followed by incubation in SuperSignal West Dura Extended Duration Substrate (Thermofisher), and Western blots were imaged and analyzed with a Bio-mad imaging system.

[9] = tested on: vascular leakage (vitreous albumin); assay: Measurement of albumin in vitreous samples (ELISA); type: in vivo, rho/VEGF mice
From the text: Vitreous samples were obtained by inserting a micropipette into the vitreous cavity and gently aspirating the vitreous. Using the manufacturer’s instructions, a mouse albumin ELISA kit (ab108791; […] The plate wa read at 450 and 570 nm with SpectraMax Plus (Molecular Devices, San Jose, CA).

## CCN(CC)CCNC(=O)c1c(C)[nH]c(/C=C2\C(=O)Nc3ccc(F)cc32)c1C [sunitinib, reference compound]
[1]; Fig 2c, intravitreous free sunitinib 0.1µg, 1 week
  CNVsize: 0.01929 mm2 and 0.0114 mm2 and 0.03268 mm2 and 0.02288 mm2 and 0.01524 mm2 and 0.02254 mm2 and 0.02987 mm2 and 0.01948 mm2 and 0.01091 mm2
[1]; Fig 2c, intravitreous free sunitinib 0.5µg, 1 week
  CNVsize: 0.008346 mm2 and 0.0258 mm2 and 0.01396 mm2 and 0.0209 mm2 and 0.02253 mm2 and 0.02124 mm2 and 0.01904 mm2 and 0.01077 mm2 and 0.02107 mm2 and 0.01493 mm2
[1]; intravitreous 0.5 or 0.1 µg free sunitinib, 1 week
  mean area of choroidal NV vs PBS fellow eye: no significant difference; also recorded: no significant reduction
[2]
  vitreous half-life: ~ 2 days
[3]
  cataract: severe cataract
[4]; at a ratio of <10
  percentage of drug bound to melanin: 96–99.8%
[4]; sunitinib-to-melanin mass ratio 0.001%
  percentage of melanin-bound sunitinib: 99.8%
[4]; sunitinib-to-melanin mass ratio 20%
  percentage of melanin-bound sunitinib: ~ 80%
[5]; both sexes, C57BL/6N, mouse, whole eye (globe), other: intravitreous injection, 1 µg, read-out: overall half-life in mouse eyes (converted)
  half-life: ~50.4 h
[5]; day 7, listed as Sunitinib Suspension
  Remaining Drug (Normalized against T0) (%): 10.1%
[5]; day 7, listed as free sunitinib
  Remaining Drug (Normalized against T0) (%): 10.1±0.7%
[5]; day 30, listed as Sunitinib Suspension
  Remaining Drug (Normalized against T0) (%): 8.8%
[5]; day 30, listed as sunitinib drug suspension
  Remaining Drug (Normalized against T0) (%): 9%
[6]; 0.125 days
  Average release (%): 34.3%
[6]; 1 day
  Average release (%): 51.9%
[6]; 3 days
  Average release (%): 68.4%
[6]; 10 days
  Average release (%): 89.0%
[6]; 17 days
  Average release (%): 95.0%
[6]; 24 days
  Average release (%): 99.5%
[6]; 30 days
  Average release (%): 100.0%
[6]; Fig. 1b, open squares
  behaviour in release medium in vitro: rapidly eluted and dissolved in release medium
[7]; pH 1.2–6.8
  solubility in acidic aqueous solutions: high solubility
[7]; pH 7.4
  aqueous solubility: low aqueous solubility

## aflibercept
Subretinal NV; P21
  Mean area of sunretinal NV per retina: 0.006443 mm2 and 0.004033 mm2 and 0.006827 mm2 and 0.01579 mm2 and 0.001837 mm2 and 0.02155 mm2 and 0.01187 mm2 and 0.0074 mm2 and 0.009835 mm2 and 0.01142 mm2 and 0.01439 mm2 and 0.004674 mm2
Subretinal NV; P28
  Mean area of sunretinal NV per retina: 0.01232 mm2 and 0.01247 mm2 and 0.01867 mm2 and 0.01277 mm2 and 0.01806 mm2 and 0.01223 mm2 and 0.007648 mm2 and 0.002213 mm2 and 0.009102 mm2
Subretinal NV; P35
  Mean area of sunretinal NV per retina: 0.01325 mm2 and 0.02508 mm2 and 0.02389 mm2 and 0.02314 mm2 and 0.01559 mm2 and 0.02014 mm2 and 0.01286 mm2 and 0.008195 mm2 and 0.01062 mm2 and 0.006501 mm2 and 0.02165 mm2 and 0.01911 mm2 and 0.01968 mm2 and 0.008771 mm2 and 0.02218 mm2 and 0.008675 mm2
Subretinal NV; P42
  Mean area of sunretinal NV per retina: 0.01663 mm2 and 0.008316 mm2 and 0.01691 mm2 and 0.01919 mm2 and 0.01735 mm2 and 0.02425 mm2 and 0.00731 mm2 and 0.02809 mm2 and 0.01595 mm2
Subretinal NV; intravitreous 40 µg
  duration of inhibition of subretinal NV: 1 week
Subretinal NV; intravitreous 40 µg at P14, P21
  mean area of NV per retina vs PBS eyes: significantly less; also recorded: significantly lower
VEGF-induced leukostasis; 200 ng VEGF one week later, 24 h
  mean number of adherent intravascular leukocytes vs PBS eyes: significant reduction
VEGF-induced leukostasis; Fig 6a, individual retinas
  Intravascular leukocytes per retina: 51 and 28 and 33 and 20 and 18 and 23 and 44 and 54
[8]; 40 µg at P14, measured at P42
  mean ONL thickness vs PBS eyes: no significant difference
[8]; location I1
  ONL thickness: 0.0549 mm and 0.04725 mm and 0.03173 mm and 0.03578 mm and 0.03893 mm and 0.04095 mm and 0.03375 mm
[8]; location I2
  ONL thickness: 0.0504 mm and 0.04905 mm and 0.03735 mm and 0.04072 mm and 0.04027 mm and 0.05108 mm and 0.0387 mm
[8]; location I3
  ONL thickness: 0.05017 mm and 0.03982 mm and 0.03465 mm and 0.03645 mm and 0.0351 mm and 0.04972 mm and 0.04208 mm
[8]; location S1
  ONL thickness: 0.04253 mm and 0.0441 mm and 0.03465 mm and 0.0414 mm and 0.04478 mm and 0.04545 mm
[8]; location S2
  ONL thickness: 0.04208 mm and 0.05085 mm and 0.0423 mm and 0.04275 mm and 0.04905 mm and 0.03982 mm and 0.0504 mm
[8]; location S3
  ONL thickness: 0.04163 mm and 0.0486 mm and 0.03825 mm and 0.04095 mm and 0.04455 mm and 0.03915 mm and 0.0495 mm
[1]; Fig 2d, intravitreous 40 µg, 1W
  CNVsize: 0.008066 mm2 and 0.009648 mm2 and 0.01333 mm2 and 0.01287 mm2 and 0.01253 mm2 and 0.01268 mm2 and 0.009735 mm2 and 0.0107 mm2
[1]; Fig 2d, intravitreous 40 µg, 9W
  CNVsize: 0.03895 mm2 and 0.02251 mm2 and 0.03758 mm2 and 0.02161 mm2 and 0.01535 mm2 and 0.02051 mm2 and 0.02183 mm2
[1]; Fig 2d, intravitreous 40 µg, 15W, listed as Alfibercept
  CNVsize: 0.02431 mm2 and 0.01432 mm2 and 0.01526 mm2 and 0.01738 mm2 and 0.01801 mm2 and 0.01547 mm2
[1]; intravitreous 40 µg, 1 week after injection
  choroidal NV vs PBS fellow eye: significant suppression; also recorded: significant reduction
Rhodopsin kinase (GRK-1); 40 µg at P14, P49
  rhodopsin kinase/actin ratio vs PBS eyes: no difference
Rhodopsin kinase (GRK-1); Fig 5d, 40 µg, P49, individual retinas
  GRK-1/Actin: 0.8885 and 0.8156 and 1.021 and 0.9707 and 0.8036
[9]; Fig 4d, vitreous, 1 week after 40 µg at P28, individual eyes
  Concentrate of Albmin: 0.1634 µg and 0.1282 µg and 0.1305 µg and 0.1935 µg and 0.4253 µg
[9]; P28 rho/VEGF mice, 1 week after intravitreous 40 µg
  mean vitreous albumin concentration vs PBS eyes: significantly less; also recorded: significant reduction
